The target of assay [1] is Cyclin-dependent kinase 5/CDK5 activator 1 (Homo sapiens) (UniProt Q00535+Q15078). Description: Inhibition of recombinant full-length human CDK5/p25 at 10 uM using histone H1 as substrate measured after 40 mins in presence of [gamma33P]ATP by scintillation counting method relative to control. In kind it is protein-complex assay.
Assay [2] has as its system Transcriptional enhancer factor TEF-3 (Homo sapiens), Q15561 [C330A]. Description: Binding affinity to TEAD4-YBD C330A mutant (unknown origin) assessed as change in melting temperature by SYPRO-dye based thermal shift assay.
For assay [3], the system named is eIF-2-alpha kinase GCN2 (Homo sapiens), Q9P2K8 [E556G]. The experiment in a line: Inhibition of full length recombinant human GCN2 E556G mutant at 10 uM using RSRSRSRSRSRSRSR as substrate after 40 mins in presence of [gamma33P]ATP by scintillation counting method relative to control.
Assay [4] concerns the target CDK9/cyclin T1 (Homo sapiens) (UniProt O60563+P50750). The experiment in a line: Inhibition of recombinant full length human CDK9/cyclinT1 at 10 uM using KTFCGTPEYLAPEVRREPRILSEEEQEMFRDFDYIADWC as substrate measured after 40 mins in presence of [gamma33P]ATP by scintillation counting method relative to control. In kind it is protein-complex assay.

Chain of Cyclin-dependent kinase 5/CDK5 activator 1 (Homo sapiens) (Q00535 whole entry): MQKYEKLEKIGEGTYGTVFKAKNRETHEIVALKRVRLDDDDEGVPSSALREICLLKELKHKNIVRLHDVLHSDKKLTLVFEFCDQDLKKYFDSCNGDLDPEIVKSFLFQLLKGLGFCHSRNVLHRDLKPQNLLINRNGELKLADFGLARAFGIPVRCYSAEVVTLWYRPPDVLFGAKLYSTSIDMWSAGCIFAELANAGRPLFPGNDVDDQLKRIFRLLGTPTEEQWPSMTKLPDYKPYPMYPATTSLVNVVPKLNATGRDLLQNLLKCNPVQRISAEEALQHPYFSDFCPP
Chain of Cyclin-dependent kinase 5/CDK5 activator 1 (Homo sapiens) (Q15078 99-307 partner limits assumed): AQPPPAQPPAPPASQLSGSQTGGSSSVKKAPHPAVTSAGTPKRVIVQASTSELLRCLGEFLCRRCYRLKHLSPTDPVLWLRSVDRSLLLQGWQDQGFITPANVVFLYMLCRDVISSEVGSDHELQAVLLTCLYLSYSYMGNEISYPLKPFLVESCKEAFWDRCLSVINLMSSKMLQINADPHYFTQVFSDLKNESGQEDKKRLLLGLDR
Chain of Transcriptional enhancer factor TEF-3 (Homo sapiens), Q15561 [C330A] (Q15561 whole entry C330A): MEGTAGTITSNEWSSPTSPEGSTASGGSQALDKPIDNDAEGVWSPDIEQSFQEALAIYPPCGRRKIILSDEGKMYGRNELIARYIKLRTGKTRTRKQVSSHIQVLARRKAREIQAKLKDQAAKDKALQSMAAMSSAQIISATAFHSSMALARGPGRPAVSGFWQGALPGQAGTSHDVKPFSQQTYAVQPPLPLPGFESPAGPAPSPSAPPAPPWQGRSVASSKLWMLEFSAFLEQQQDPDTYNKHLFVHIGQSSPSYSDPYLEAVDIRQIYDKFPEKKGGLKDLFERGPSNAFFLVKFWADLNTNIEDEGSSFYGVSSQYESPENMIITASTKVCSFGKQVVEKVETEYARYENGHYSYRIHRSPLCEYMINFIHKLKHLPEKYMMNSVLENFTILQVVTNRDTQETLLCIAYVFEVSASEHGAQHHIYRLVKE
Chain of eIF-2-alpha kinase GCN2 (Homo sapiens), Q9P2K8 [E556G] (Q9P2K8 whole entry E556G): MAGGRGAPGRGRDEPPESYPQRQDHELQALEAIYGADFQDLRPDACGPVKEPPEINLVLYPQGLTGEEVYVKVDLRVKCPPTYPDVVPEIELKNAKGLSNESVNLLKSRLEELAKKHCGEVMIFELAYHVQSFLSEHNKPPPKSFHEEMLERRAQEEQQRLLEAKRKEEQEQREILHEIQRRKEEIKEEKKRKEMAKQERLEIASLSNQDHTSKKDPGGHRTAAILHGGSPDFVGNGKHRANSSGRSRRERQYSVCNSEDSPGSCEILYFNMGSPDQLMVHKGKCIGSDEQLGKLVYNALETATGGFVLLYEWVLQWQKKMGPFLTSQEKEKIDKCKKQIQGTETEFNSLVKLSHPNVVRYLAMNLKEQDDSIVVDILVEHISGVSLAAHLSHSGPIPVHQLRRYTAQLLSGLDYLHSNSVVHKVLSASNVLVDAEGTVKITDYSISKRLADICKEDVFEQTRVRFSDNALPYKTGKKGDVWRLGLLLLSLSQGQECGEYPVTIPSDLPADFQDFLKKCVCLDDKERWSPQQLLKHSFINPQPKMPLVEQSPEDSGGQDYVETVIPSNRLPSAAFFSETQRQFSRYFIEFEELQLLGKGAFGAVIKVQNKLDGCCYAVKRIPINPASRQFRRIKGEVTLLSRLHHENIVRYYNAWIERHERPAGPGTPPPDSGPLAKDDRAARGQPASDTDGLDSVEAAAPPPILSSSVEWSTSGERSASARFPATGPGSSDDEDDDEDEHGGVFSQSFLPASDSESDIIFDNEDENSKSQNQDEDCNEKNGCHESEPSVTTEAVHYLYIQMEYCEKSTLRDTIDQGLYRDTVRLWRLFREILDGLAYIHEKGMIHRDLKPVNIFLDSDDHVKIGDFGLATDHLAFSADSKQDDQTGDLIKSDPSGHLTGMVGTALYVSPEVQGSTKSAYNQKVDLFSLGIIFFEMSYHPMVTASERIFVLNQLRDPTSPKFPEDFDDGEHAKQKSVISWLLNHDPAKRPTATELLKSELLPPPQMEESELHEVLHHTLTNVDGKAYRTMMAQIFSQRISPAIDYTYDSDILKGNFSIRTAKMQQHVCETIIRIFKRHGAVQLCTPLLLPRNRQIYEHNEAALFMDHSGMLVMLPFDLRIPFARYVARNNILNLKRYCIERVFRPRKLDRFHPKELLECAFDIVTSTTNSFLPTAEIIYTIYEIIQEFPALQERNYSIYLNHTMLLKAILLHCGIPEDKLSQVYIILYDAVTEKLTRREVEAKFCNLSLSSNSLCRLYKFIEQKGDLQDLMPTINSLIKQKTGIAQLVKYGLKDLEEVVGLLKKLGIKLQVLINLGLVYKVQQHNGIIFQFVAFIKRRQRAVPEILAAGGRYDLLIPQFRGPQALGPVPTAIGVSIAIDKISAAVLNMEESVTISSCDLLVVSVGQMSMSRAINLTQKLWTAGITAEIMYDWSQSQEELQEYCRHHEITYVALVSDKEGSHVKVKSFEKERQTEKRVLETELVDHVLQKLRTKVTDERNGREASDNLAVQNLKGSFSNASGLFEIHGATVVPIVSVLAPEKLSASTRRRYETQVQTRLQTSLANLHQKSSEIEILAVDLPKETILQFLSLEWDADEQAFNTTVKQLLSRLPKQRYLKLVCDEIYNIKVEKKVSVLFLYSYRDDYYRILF

Turning to `C=CS(=O)(=O)Nc1ccc(Cc2ccc3ccccc3c2)cc1`, the results for the inhibition in assay [1], in assay [3] and in assay [4] were 0%, 3% and 3%, respectively. Moreover, the ΔTm (usually the change in melting temperature against a reference sample) in assay [2] was 6.4 °C.

The record behind these values is ChEMBL document CHEMBL4376829, “Discovery and biological evaluation of vinylsulfonamide derivatives as highly potent, covalent TEAD autopalmitoylation inhibitors” (Eur J Med Chem, 2019).
